Reference: patent US9102698B2 (CAN-FITE BIOPHARMA LTD., priority 2007, dated 2015)

Tests used:
[1] = tested on: tumors (melanoma, colon carcinoma, prostate carcinoma); details: orally administered; syngeneic (melanoma, colon carcinoma) and xenograft (colon and prostate carcinoma) mouse models; cited from earlier work
neutrophils = details: oral, mice, cited from earlier work
colon carcinoma = details: oral, nude mice; cited from earlier work
TNF-α and MIP-1α = details: in vitro; cited from earlier work
[2] = tested on: collagen and adjuvant induced arthritis (AIA); details: experimental animal models; cited from earlier work
A3AR = details: synovial and peripheral blood mononuclear cells of AIA rats, upon IB-MECA treatment; cited from earlier work
[3] = Solubility study on 3-iodobenzylamine hydrochloride in synthesis solvents; format: physicochemical
Description: 3-Iodobenzylamine hydrochloride recrystallized from protic solvents but was insoluble in aprotic organic solvents. No purity enhancement was observed during hot (reflux) slurries in aprotic organic solvents.

Row | Structure (SMILES) | development of tumors [1] | cytotoxic-induced myelo-toxicity (neutrophils) | production of neutrophils (neutrophils; via an increase in G-CSF) | neutrophil recovery after cytotoxic drug therapy (colon carcinoma) | progression of colon carcinoma (colon carcinoma) | production of MIP-1α (TNF-α and MIP-1α) | production of TNF-α (TNF-α and MIP-1α) | development of collagen and adjuvant induced arthritis [2] | A3AR level (A3AR) | Behavior at 21 C. ([3]; IPA, 10 solvent volumes) | Behavior at reflux ([3]; IPA, 10 solvent volumes) | Behavior at 21 C. ([3]; IPAc, 10 solvent volumes) | Behavior at reflux ([3]; IPAc, 10 solvent volumes) | Behavior at 21 C. ([3]; MeCN, 5 solvent volumes) | Behavior at reflux ([3]; MeCN, 5 solvent volumes) | Behavior at 21 C. ([3]; MeOH, 1 solvent volume) | Behavior at reflux ([3]; MeOH, 1 solvent volume) | Behavior at 21 C. ([3]; THF, 10 solvent volumes) | Behavior at reflux ([3]; THF, 10 solvent volumes)
1 | CNC(=O)[C@H]1O[C@@H](n2cnc3c(NCc4cccc(I)c4)ncnc32)[C@H](O)[C@@H]1O [IB-MECA, 1-deoxy-1-(6-{[(3-iodophenyl)methyl]amino}9H-purine-9-yl)-N-methyl-β-d-ribofuranuronamide] | inhibits the development of tumors | protects against cytotoxic-induced myelo-toxicity | stimulates the production of neutrophils | stimulates neutrophil recovery | inhibits progression of colon carcinoma | inhibited | inhibited | preventing the development | down regulates |  |  |  |  |  |  |  |  |  | 
2 | Cl.NCc1cccc(I)c1 [3-iodobeuzylamine hydrochloride, 3-iodobenzylamine hydrochloride] |  |  |  |  |  |  |  |  |  | Insoluble | Soluble | Insoluble | Insoluble | Insoluble | Insoluble | Insoluble | Soluble | Insoluble | Insoluble
